PubChem BioAssay AID488786 (NMMLSC, 2010)
The source made the active and inactive calls.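 The calls were made as follows: active = compounds whose fitted off-rate of the fluorescent probe exceeds 0.05 per second; inactive = the rest.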

Molecular target: Integrin alpha-4 (Homo sapiens) (UniProt P13612)
Test: VLA-4 ligand dissociation kinetics with analogs – U937 cells, flow cytometry, mechanism study for VLA-4 allosteric modulator project, SAR follow-up (AID 488786)
Conditions: LDV-FITC dissociation rate; for dissociation rate: at 100 µM, stronger effect = higher value

Sequence of Integrin alpha-4 (Homo sapiens) (P13612 whole entry, looked up): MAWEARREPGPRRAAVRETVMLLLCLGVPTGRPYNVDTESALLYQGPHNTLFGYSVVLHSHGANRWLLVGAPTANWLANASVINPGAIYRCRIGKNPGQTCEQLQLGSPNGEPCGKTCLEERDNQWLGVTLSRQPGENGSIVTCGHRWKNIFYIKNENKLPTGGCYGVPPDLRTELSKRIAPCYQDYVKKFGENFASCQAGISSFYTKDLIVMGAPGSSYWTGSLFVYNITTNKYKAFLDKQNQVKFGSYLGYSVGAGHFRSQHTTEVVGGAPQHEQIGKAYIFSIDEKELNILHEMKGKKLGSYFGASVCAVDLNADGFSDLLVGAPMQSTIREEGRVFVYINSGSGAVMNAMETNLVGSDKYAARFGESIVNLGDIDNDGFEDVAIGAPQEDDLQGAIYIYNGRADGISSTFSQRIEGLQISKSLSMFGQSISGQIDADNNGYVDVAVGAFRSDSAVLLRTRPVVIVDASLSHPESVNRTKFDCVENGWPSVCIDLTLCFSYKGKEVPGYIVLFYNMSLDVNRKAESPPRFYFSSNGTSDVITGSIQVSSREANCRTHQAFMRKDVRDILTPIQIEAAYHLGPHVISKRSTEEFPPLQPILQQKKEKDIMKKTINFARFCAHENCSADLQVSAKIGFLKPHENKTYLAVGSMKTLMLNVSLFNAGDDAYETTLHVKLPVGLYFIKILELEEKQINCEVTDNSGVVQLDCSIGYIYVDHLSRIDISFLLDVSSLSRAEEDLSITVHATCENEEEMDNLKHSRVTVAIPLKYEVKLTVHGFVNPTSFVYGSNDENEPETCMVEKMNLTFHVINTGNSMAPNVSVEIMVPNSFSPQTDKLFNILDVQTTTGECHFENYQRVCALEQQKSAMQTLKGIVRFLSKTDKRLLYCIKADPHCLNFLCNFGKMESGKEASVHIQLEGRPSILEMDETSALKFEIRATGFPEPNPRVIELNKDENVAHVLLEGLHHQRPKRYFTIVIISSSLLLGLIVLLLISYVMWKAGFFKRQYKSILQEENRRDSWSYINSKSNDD

CN(C)CCOc1ccc(-c2c(-c3ccccc3)sc3ccccc23)cc1
dissociation rate: 0.06 s⁻¹

COC(=O)C1OC2(OC1C(=O)OC)c1ccccc1-c1ccccc12 (centres undefined)
outcome: inactive

CC(NC(=O)/C(C#N)=C/c1ccc(Cl)c([N+](=O)[O-])c1)c1ccccc1 (centres undefined)
outcome: inactive

c1ccc(-c2sc3ccccc3c2-c2ccc(OCCN3CCCC3)cc2)cc1
dissociation rate: 0.055 s⁻¹

O=C(COc1ccc(/C=N/NC(=O)c2cc3ccccc3o2)cc1Cl)Nc1ccccc1
outcome: inactive

COc1ccc(-c2sc3ccccc3c2-c2ccc(OCCN(C)C)cc2)cc1
dissociation rate: 0.08 s⁻¹

Cc1ccc(NC(=O)c2cc(N3C(=O)CCC3=O)ccc2N2CCOCC2)cc1Cl
outcome: inactive

Cc1ccc(NC(=O)c2cc(N3C(=O)CCC3=O)ccc2N2CCOCC2)cc1
outcome: inactive

COC(=O)C1CN(C#N)N(c2ccc(Cl)cc2)C12c1ccccc1-c1ccccc12 (centres undefined)
outcome: inactive

FC(F)Oc1ccc(C2=Nn3c(nnc3-c3ccccc3Cl)SC2)cc1OCC1CC1
outcome: inactive

COc1cccc(-c2sc3ccccc3c2-c2ccc(OCCN3CCCC3)cc2)c1
dissociation rate: 0.065 s⁻¹

COC(=O)[C@@H]1[C@@H](C(=O)OC)C2(c3ccccc3-c3ccccc32)N(c2ccc(Cl)cc2)N1C#N
outcome: inactive

c1ccc2c(-c3ccc(OCCN4CCCCC4)cc3)c(-c3ccsc3)sc2c1
dissociation rate: 0.016 s⁻¹ (inactive)

CCOCCCNC(=O)/C(C#N)=C/c1ccc(Cl)c([N+](=O)[O-])c1
outcome: inactive

CCOC(=O)COc1ccccc1/C=C\[N+](=O)[O-]
outcome: inactive

CCOC(=O)/C(=C\c1ccc(OC(F)F)cc1)C1=Nn2c(nnc2-c2ccc(Cl)cc2)SC1
outcome: inactive

c1ccc2c(-c3ccc(OCCN4CCCC4)cc3)c(-c3ccsc3)sc2c1
dissociation rate: 0.048 s⁻¹ (inactive)

COc1cccc(-c2sc3ccccc3c2-c2ccc(OCCN(C)C)cc2)c1
dissociation rate: 0.06 s⁻¹

O=C1NC(=O)C2(N1)c1ccccc1-c1ccccc12
outcome: inactive
